In general, IC50 refers to the concentration at which inhibition is half-maximal. High values mean a need for much substance, low ones inhibition by little substance.

Series [1] concerns human APOE RNA. As to the kind of experiment: Dose-dependent inhibition of human APOE RNA in HepG2 cells, electroporation, 50,000 cells per well, RT-PCR normalized to GAPDH (Example 4, Tables 8-10). The class given is cell-based. The conditions noted are these: HepG2 cells, electroporation, Table 8; for APOE RNA (% UTC) 5 nM / APOE RNA (% UTC) 13 nM / APOE RNA (% UTC) 33 nM / APOE RNA (% UTC) 82 nM / APOE RNA (% UTC) 205 nM / APOE RNA (% UTC) 512 nM / IC50: 24-hour treatment; for APOE RNA (% UTC) 1,280 nM: 24-hour treatment, 1,280 nM; for APOE RNA (% UTC) 3,200 nM: 24-hour treatment, 3,200 nM; for APOE RNA (% UTC) 8,000 nM: 24-hour treatment, 8,000 nM; for APOE RNA (% UTC) 20,000 nM: 24-hour treatment, 20,000 nM; for IC50: reduction of human APOE RNA. In a few lines: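 HepG2 cells, 50,000 per well, electroporated with modified oligonucleotide at various concentrations. APOE RNA quantified by RT-PCR with human primer probe set RTS3073, normalized to GAPDH. Values are percent APOE RNA relative to untreated control cells.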

Series [2] deals with human APOE RNA. As to the kind of experiment: Activity in APOE C57BL/6NTac-Apoeem7250 knock-in mice, single ICV bolus, 4 weeks (Example 10). It is filed as in vivo. Conditions: single ICV bolus 300 μg, 4 weeks post treatment, normalized to mouse Ppia. In outline: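 Knock-in mice (2–4 per group) received one 300 μg ICV bolus of oligonucleotide or PBS. After four weeks, human APOE RNA in cortex and spinal cord measured by RT-qPCR (primer probe set RTS3073), normalized to mouse Ppia, expressed as % of PBS controls.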

Series [3] relates to human APOE RNA. Nature of the series: Activity in APOE C57BL/6NTac-Apoeem7250 knock-in mice, single ICV bolus, 8 weeks (Example 11). The class given is in vivo. The conditions noted are these: single ICV bolus 300 μg, 8 weeks post treatment, normalized to mouse Ppia. In a few lines: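 Human APOE knock-in C57BL/6NTac mice given one ICV bolus of 300 μg oligonucleotide; PBS-dosed group as control. At 8 weeks, cortex and spinal cord RNA measured by qRT-PCR (human probe RTS3073), normalized to mouse Ppia, expressed as % of PBS control.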

The subject of series [4] is human APOE RNA. As to the kind of experiment: Activity in APOE C57BL/6NTac-Apoeem7250 knock-in mice, single ICV bolus, 16 weeks (Example 12). It is filed as in vivo. The conditions noted are these: single ICV bolus 300 μg, 16 weeks post treatment, normalized to mouse Ppia. In a few lines:
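Knock-in mice (3-4 per group) received one ICV bolus of 300 μg oligonucleotide, PBS as control. After 16 weeks, human APOE RNA in cortex and spinal cord measured by RT-qPCR, normalized to mouse Ppia, and reported as % of PBS control.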

The subject of series [5] is human APOE RNA. As to the kind of experiment: Activity in APOE C57BL/6NTac-Apoeem7250 knock-in mice, single ICV bolus, 20 weeks (Example 13). It is filed as in vivo. Conditions: single ICV bolus 300 μg, 20 weeks post treatment, normalized to mouse Ppia. In outline: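 Knock-in mice (n=4) given a single ICV bolus of 300 μg oligonucleotide, PBS as control. After 20 weeks, human APOE RNA in cortex and spinal cord measured by RT-qPCR, normalized to mouse Ppia, expressed as % of PBS-treated animals.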

Strand notation (5' to 3'): a small letter for the sugar, then the base; units joined by * are phosphorothioate-linked, units joined directly phosphodiester-linked; [ ] holds rarer units or linkages, { } end groups; capitals alone tell only the bases. [ms] = mesyl phosphoramidate linkage; e = 2'-O-(2-methoxyethyl) (MOE); k = constrained ethyl (cEt); [5mC] = 5-methylcytosine; d = 2'-deoxy (DNA)

As to “1785601: modified oligonucleotide complementary to human APOE RNA (k[5mC]*kT*kT*dG[ms]dG[ms]dT[ms]dG*dA[ms]dA[ms]dT*d[5mC]*dT*dT*dT*dA[ms]dT*kT*kA*dA[ms]kA; antisense) [compound 1785601]”, in the series on human APOE RNA [1], the “APOE RNA (% UTC) 5 nM” value is listed as 111 % UTC, the “APOE RNA (% UTC) 13 nM” value was 115 % UTC, the “APOE RNA (% UTC) 33 nM” value was 101 % UTC and the “APOE RNA (% UTC) 82 nM” value is given as 75 % UTC. In the series with human APOE RNA [1], the “APOE RNA (% UTC) 205 nM” value came to 63 % UTC, the “APOE RNA (% UTC) 512 nM” value was 36 % UTC, the “APOE RNA (% UTC) 1,280 nM” value is recorded as 25 % UTC and the “APOE RNA (% UTC) 3,200 nM” value is given as 15 % UTC. Further, in the series with human APOE RNA [1], the “APOE RNA (% UTC) 8,000 nM” value worked out at 16 % UTC, the “APOE RNA (% UTC) 20,000 nM” value amounted to 10 % UTC and the half-inhibitory concentration (IC50) worked out at 380 nM. Besides, in the series with human APOE RNA [2], the “APOE RNA (% control) Cortex” value amounted to 33 % control and the “APOE RNA (% control) Spinal Cord” value was found to be 40 % control. In addition, in the series on human APOE RNA [3], the “APOE RNA (% control) Cortex” value is given as 28 % control and the “APOE RNA (% control) Spinal Cord” value turned out to be 211 % control. For the same substance, in the series with human APOE RNA [4], the “APOE RNA (% control) Cortex” value was found to be 39 % control and the “APOE RNA (% control) Spinal Cord” value was found to be 21 % control. Besides, in the series with human APOE RNA [5], the “APOE RNA (% control) Cortex” value is 43 % control and the “APOE RNA (% control) Spinal Cord” value was 31 % control.
For “1785619 (k[5mC]*dT[ms]dT[ms]kG*dG[ms]kT*dG*dA[ms]dA[ms]dT*d[5mC]*dT*dT*dT*dA[ms]dT*kT*kA*dA[ms]kA) [Compound 1785619]”, the “APOE RNA (% control) Cortex” value in the series with human APOE RNA [2] came to 41 % control; with human APOE RNA [3], 40 % control; in the series with human APOE RNA [4] it was 40 % control; in the series on human APOE RNA [5] it was 58 % control. The “APOE RNA (% control) Spinal Cord” value in the series on human APOE RNA [2] is listed as 41 % control; in the series on human APOE RNA [3], 27 % control; with human APOE RNA [4], 41 % control; in the series on human APOE RNA [5], 59 % control.
With “1778120 (eA*e[5mC]eTeTeGeG*dT*dG[ms]dA[ms]dA*dT*d[5mC]*dT*dT*dT*dA[ms]kTeT*eA*eA; antisense) [Compound 1778120]”, the “APOE RNA (% control) Cortex” value in the series on human APOE RNA [2] stood at 47 % control; in the series on human APOE RNA [3], 57 % control; in the series with human APOE RNA [4] it was 75 % control; in the series on human APOE RNA [5], 78 % control. Further, the “APOE RNA (% control) Spinal Cord” value with human APOE RNA [2] was found to be 58 % control; with human APOE RNA [3] it was 24 % control; in the series with human APOE RNA [4] it was 46 % control; in the series with human APOE RNA [5] it was 44 % control.
With “1785616 (k[5mC]*dT[ms]dT[ms]kG*dG[ms]kT*dG[ms]dA[ms]dA[ms]dT*d[5mC]*dT*dT*dT*dA*dT[ms]kT*kA*dA[ms]kA; antisense) [Compound 1785616]”, the “APOE RNA (% control) Cortex” value was 47 % control in the series with human APOE RNA [2], 47 % control with human APOE RNA [3], 47 % control in the series with human APOE RNA [4] and 77 % control in the series with human APOE RNA [5]. Also, the “APOE RNA (% control) Spinal Cord” value in the series with human APOE RNA [2] is 66 % control; in the series with human APOE RNA [3], 27 % control; in the series with human APOE RNA [4], 34 % control; in the series on human APOE RNA [5], 57 % control.
On to “1778129: modified oligonucleotide complementary to human APOE RNA (eA*e[5mC]eTeTeG*kG*dT*dG[ms]dA[ms]dA*dT*d[5mC]*dT*dT*dT*dA[ms]kT*kT*eA*eA; antisense) [compound 1778129]”, for which, in the series on human APOE RNA [1], the “APOE RNA (% UTC) 5 nM” value was 124 % UTC, the “APOE RNA (% UTC) 13 nM” value is 105 % UTC, the “APOE RNA (% UTC) 33 nM” value is listed as 110 % UTC and the “APOE RNA (% UTC) 82 nM” value was determined as 77 % UTC. For the same substance, in the series on human APOE RNA [1], the “APOE RNA (% UTC) 205 nM” value stood at 60 % UTC, the “APOE RNA (% UTC) 512 nM” value amounted to 44 % UTC, the “APOE RNA (% UTC) 1,280 nM” value is on record as 29 % UTC and the “APOE RNA (% UTC) 3,200 nM” value is recorded as 9 % UTC. Further, in the series with human APOE RNA [1], the “APOE RNA (% UTC) 8,000 nM” value is recorded as 14 % UTC; the “APOE RNA (% UTC) 20,000 nM” value came to 2 % UTC; the midpoint of inhibition, the IC50, lay at 410 nM. In the series on human APOE RNA [2], the “APOE RNA (% control) Cortex” value is given as 25 % control and the “APOE RNA (% control) Spinal Cord” value is 47 % control. For the same substance, in the series with human APOE RNA [3], the “APOE RNA (% control) Cortex” value was found to be 19 % control and the “APOE RNA (% control) Spinal Cord” value is 9 % control. Moreover, in the series with human APOE RNA [4], the “APOE RNA (% control) Cortex” value came to 34 % control and the “APOE RNA (% control) Spinal Cord” value is recorded as 14 % control. Further, in the series on human APOE RNA [5], the “APOE RNA (% control) Cortex” value is recorded as 52 % control and the “APOE RNA (% control) Spinal Cord” value was 24 % control.
As for “1778119 (eA*e[5mC]eTeTeG*eG*dT*dG[ms]dA[ms]dA*dT*d[5mC]*dT*dT*dT*dA[ms]kTeT*eA*eA; antisense) [Compound 1778119]”, the “APOE RNA (% control) Cortex” value is 45 % control in the series on human APOE RNA [2], 52 % control in the series with human APOE RNA [3], 62 % control with human APOE RNA [4] and 84 % control with human APOE RNA [5]. Also, the “APOE RNA (% control) Spinal Cord” value with human APOE RNA [2] came out at 56 % control; with human APOE RNA [3], 27 % control; in the series on human APOE RNA [4], 38 % control; with human APOE RNA [5], 51 % control.
As to “1785600 (k[5mC]*kT*kT*dG[ms]dG[ms]dT[ms]dG*dA*dA*dT*d[5mC]*dT[ms]dT[ms]dT[ms]dA*dT*kT*kA*dA[ms]kA; antisense) [Compound 1785600]”, the “APOE RNA (% control) Cortex” value is 46 % control with human APOE RNA [2], 36 % control in the series on human APOE RNA [3], 39 % control with human APOE RNA [4] and 60 % control in the series with human APOE RNA [5]. The “APOE RNA (% control) Spinal Cord” value turned out to be 51 % control with human APOE RNA [2], 26 % control in the series on human APOE RNA [3], 30 % control in the series with human APOE RNA [4] and 33 % control in the series on human APOE RNA [5].
For “1778126 (eA*e[5mC]eTeTkG*kG*dT*dG[ms]dA[ms]dA*dT*d[5mC]*dT*dT*dT*dA[ms]kT*eT*eA*eA; antisense) [Compound 1778126]”, the “APOE RNA (% control) Cortex” value was 41 % control in the series on human APOE RNA [2], 23 % control with human APOE RNA [3], 37 % control with human APOE RNA [4] and 52 % control with human APOE RNA [5]. Moreover, the “APOE RNA (% control) Spinal Cord” value turned out to be 72 % control in the series on human APOE RNA [2], 20 % control in the series with human APOE RNA [3], 22 % control in the series on human APOE RNA [4] and 35 % control with human APOE RNA [5].
As for “1778112 (eA*e[5mC]eTeTeGkG*dT*dG[ms]dA[ms]dA*dT*d[5mC]*dT*dT*dT*dA[ms]eTeT*eA*eA; antisense) [Compound 1778112]”, the “APOE RNA (% control) Cortex” value with human APOE RNA [2] came to 46 % control; with human APOE RNA [3], 49 % control; in the series with human APOE RNA [4], 63 % control; with human APOE RNA [5] it was 67 % control. Besides, the “APOE RNA (% control) Spinal Cord” value with human APOE RNA [2] is on record as 49 % control; in the series with human APOE RNA [3] it was 23 % control; in the series on human APOE RNA [4], 25 % control; with human APOE RNA [5], 25 % control.

The values are drawn from patent US20250353873A1, “COMPOUNDS AND METHODS FOR MODULATING APOE EXPRESSION” (Ionis Pharmaceuticals, Inc., priority 2024, published 2025).
